According to ChEMBL document CHEMBL1150343, “Guanidine and 2-aminoimidazoline aromatic derivatives as alpha2-adrenoceptor antagonists. 2. Exploring alkyl linkers for new antidepressants” (J Med Chem, 2008):

Experiments:
Rattus norvegicus [1] = test: Increase in extracellular noradrenaline levels in Sprague-Dawley rat brain prefrontal cortex at 1 to 100 uM, locally administered by microdialysis by relative to control
[2] = Displacement of [3H]RX821002 from alpha2 adrenergic receptor in human brain prefrontal cortex tissue by liquid scintillation spectrometry; format: tissue-based
[3] = Agonist activity at alpha2 adrenergic receptor in human brain prefrontal cortex tissue by [35S]GTPgamma S binding assay relative to UK-14304; format: functional
[4] = Agonist activity at alpha2 adrenergic receptor in human brain prefrontal cortex tissue by [35S]GTPgamma S binding assay; format: functional, tissue-based
Rattus norvegicus [5] = test: Increase in extracellular noradrenaline levels in Sprague-Dawley rat brain prefrontal cortex at 10 mg/kg, ip systematically administered by microdialysis by relative to control; format: functional; settings: route intraperitoneal

pKi [2]	SMILES	further results
6.19	Cl.N=C(N)Nc1ccccc1	–
6.53	Cc1ccc(NC(=N)N)cc1.Cl	–
5.55	CCc1ccc(NC(=N)N)cc1.Cl	–
6.38	Cl.N=C(N)Nc1ccc(Cc2ccccc2)cc1	–
7.11	Cl.N=C(N)Nc1ccc2c(c1)CCCC2	Activity (Rattus norvegicus [5]): 373%; Emax (Rattus norvegicus [1]): 326%
6.05	N=C(N)Nc1ccc(Oc2ccccc2)cc1	–
6.58	c1ccc(Oc2ccc(NC3=NCCN3)cc2)cc1	–
6.4	CSc1ccc(NC(=N)N)cc1	–
5.58	N=C(N)Nc1ccc(N)cc1	–
6.83	N=C(N)Nc1ccc(Nc2ccccc2)cc1	–
6.39	COc1ccc(NC(=N)N)cc1	–
6.12	N=C(N)Nc1ccc2c(c1)Cc1cc(NC(=N)N)ccc1-2	–
5.88	N=C(N)Nc1ccc(CCc2ccc(NC(=N)N)cc2)cc1	–
6.56	c1ccc(Nc2ccc(NC3=NCCN3)cc2)cc1	–
6.62	c1ccc(Sc2ccc(NC3=NCCN3)cc2)cc1	–
6.85	Cl.c1ccc(Cc2ccc(NC3=NCCN3)cc2)cc1	–
6.3	N=C(N)Nc1ccc(Sc2ccccc2)cc1	–

The next lines start with the compound.

SMILES	pKi [2]	further results
COC1(C2=NCCN2)COc2ccccc2O1 (stereo not given)	9.04	Emax (Rattus norvegicus [1]): 287%
CCc1ccc(NC2=NCCN2)cc1.Cl	6.68	–
Cl.c1cc2c(cc1NC1=NCCN1)CCCC2	7.33	Emax [3]: 100%; EC50 [4]: 1.1 µM
Cl.c1ccc(NC2=NCCN2)cc1	6.48	–
Cc1ccc(NC2=NCCN2)cc1C.Cl	7.68	Emax [3]: 89%; EC50 [4]: 62.9 µM
Cl.N=C(N)Nc1ccc2c(c1)CCC2	6.51	–
Cl.c1cc2c(cc1NC1=NCCN1)CCC2	8.26	Emax [3]: 98%; EC50 [4]: 4.4 µM
Cc1ccc(NC2=NCCN2)cc1.Cl	7.82	Emax [3]: 97%; EC50 [4]: 15.2 µM
COc1ccc(NC2=NCCN2)cc1	7.77	–
N=C(N)Nc1ccc2c(c1)OCCO2	8.21	–
c1cc2c(cc1NC1=NCCN1)OCO2	7.33	–
N=C(N)Nc1ccc2c(c1)Cc1ccc(NC(=N)N)cc1C2	7.96	–
Nc1ccc(NC2=NCCN2)cc1	6.92	–
c1cc2c(cc1NC1=NCCN1)Cc1ccc(NC3=NCCN3)cc1C2	7.58	–
c1cc2c(cc1NC1=NCCN1)Cc1cc(NC3=NCCN3)ccc1-2	6.32	–
c1cc2c(cc1NC1=NCCN1)OCCO2	7.85	–
c1cc(NC2=NCCN2)ccc1CCc1ccc(NC2=NCCN2)cc1	7.02	Activity (Rattus norvegicus [5]): 156%; Emax (Rattus norvegicus [1]): 255%
N=C(N)Nc1ccc2c(c1)OCO2	6.4	–
CSc1ccc(NC2=NCCN2)cc1	7.07	–
c1ccc2c(c1)OCC(C1=NCCN1)O2 (stereo not given) [IDAZOXAN]	–	Emax (Rattus norvegicus [1]): 235%
